Residue numbers refer to the chain shown, from its start.
Columns and labels:
Details in all cases: 11-point 3-fold dilution
FLT3 = target: T1, FLT3 (Homo sapiens, UniProt P36888); experiment: DiscoverX KINOMEscan competition binding assay, FLT3; parameters: purchased Reaction Biology (RBC HotSpot)
T1 sequence (P36888 27-993): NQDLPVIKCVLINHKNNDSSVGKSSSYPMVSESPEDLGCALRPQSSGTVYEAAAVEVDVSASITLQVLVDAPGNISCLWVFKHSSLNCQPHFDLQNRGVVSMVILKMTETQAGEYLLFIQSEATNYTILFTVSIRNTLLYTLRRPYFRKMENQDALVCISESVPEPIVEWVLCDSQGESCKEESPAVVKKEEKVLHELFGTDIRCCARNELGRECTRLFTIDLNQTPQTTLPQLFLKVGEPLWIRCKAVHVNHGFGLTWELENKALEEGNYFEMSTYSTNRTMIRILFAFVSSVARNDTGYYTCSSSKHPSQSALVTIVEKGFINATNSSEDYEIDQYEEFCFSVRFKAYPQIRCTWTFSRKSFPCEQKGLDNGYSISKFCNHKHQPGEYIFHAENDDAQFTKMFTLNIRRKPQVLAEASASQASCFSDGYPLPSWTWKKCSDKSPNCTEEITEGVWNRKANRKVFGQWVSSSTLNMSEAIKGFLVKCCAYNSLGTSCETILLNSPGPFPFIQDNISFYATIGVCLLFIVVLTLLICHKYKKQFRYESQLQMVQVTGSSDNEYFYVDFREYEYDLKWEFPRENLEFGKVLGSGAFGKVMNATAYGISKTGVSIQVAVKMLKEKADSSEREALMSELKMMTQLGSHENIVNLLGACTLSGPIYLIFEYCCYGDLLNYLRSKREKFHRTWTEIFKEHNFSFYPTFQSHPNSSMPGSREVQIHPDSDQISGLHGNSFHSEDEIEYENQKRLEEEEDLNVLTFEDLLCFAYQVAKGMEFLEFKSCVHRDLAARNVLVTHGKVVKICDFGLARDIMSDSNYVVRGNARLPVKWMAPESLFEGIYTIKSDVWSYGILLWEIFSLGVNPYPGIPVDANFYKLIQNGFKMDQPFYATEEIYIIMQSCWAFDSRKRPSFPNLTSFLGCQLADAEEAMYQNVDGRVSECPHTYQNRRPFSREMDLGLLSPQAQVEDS
From the text: (§1) […]. […] As a result, the data report thermodynamic interaction affinities (Kd values), rather than IC50 values that are dependent on ATP concentrations. The assay uses a DNA-tagged version of the protein kinase, and an immobilized ligand bound to a solid support. Compounds that directly or indirectly prevent kinase binding to the immobilized ligand reduce the amount of kinase captured on the solid support, which is detected using an ultra-sensitive qPCR method. Affinity constants reported from the assay have been reported to be independent of the immobilized ligand used that is coupled to the solid support (See supplemental information in Fabian, M. A. et. al., (2005) Nat. Biotechnol. 23, 329-336; Wodicka, L. M. et. al., (2010) Chem. Biol. 17, 1241-1249.)
(§2) Kinase-tagged T7 phage strains were prepared in an E. coli host derived from the BL21 strain. E. coli were grown to log-phase and infected with T7 phage and incubated with shaking at 32° C. until lysis. The lysates were centrifuged and filtered to remove cell debris. The remaining kinases were produced in HEK-293 cells and subsequently tagged with DNA for qPCR detection. Streptavidin-coated magnetic beads were treated with biotinylated small molecule ligands for 30 minutes at room temperature to generate affinity resins for kinase assays. The liganded beads were blocked with excess biotin and washed with blocking buffer (SeaBlock (Pierce), 1% BSA, 0.05% Tween 20, 1 mM DTT) to remove unbound ligand and to reduce non-specific binding. […] Test compounds were prepared as 111× stocks in 100% DMSO. Kds were determined using an 11-point 3-fold compound dilution series with three DMSO control points. All compounds for Kd measurements are distributed by acoustic transfer (non-contact dispensing) in 100% DMSO. The compounds were then diluted directly into the assays such that the final concentration of DMSO was 0.9%. All reactions were performed in polypropylene 384-well plates. Each was a final volume of 0.02 mL. […] The kinase concentration in the eluates was measured by qPCR.
(§3) Binding constants (Kds) were calculated with a standard dose-response curve using the Hill equation. The Hill Slope was set to −1. Curves were fitted using a non-linear least square fit with the Levenberg-Marquardt algorithm.

IRAK1 = target: T2, IRAK1 (Homo sapiens, UniProt P51617); experiment: DiscoverX KINOMEscan competition binding assay, IRAK1
T2 construct: purchased Reaction Biology (RBC HotSpot)
T2 sequence (P51617 whole entry): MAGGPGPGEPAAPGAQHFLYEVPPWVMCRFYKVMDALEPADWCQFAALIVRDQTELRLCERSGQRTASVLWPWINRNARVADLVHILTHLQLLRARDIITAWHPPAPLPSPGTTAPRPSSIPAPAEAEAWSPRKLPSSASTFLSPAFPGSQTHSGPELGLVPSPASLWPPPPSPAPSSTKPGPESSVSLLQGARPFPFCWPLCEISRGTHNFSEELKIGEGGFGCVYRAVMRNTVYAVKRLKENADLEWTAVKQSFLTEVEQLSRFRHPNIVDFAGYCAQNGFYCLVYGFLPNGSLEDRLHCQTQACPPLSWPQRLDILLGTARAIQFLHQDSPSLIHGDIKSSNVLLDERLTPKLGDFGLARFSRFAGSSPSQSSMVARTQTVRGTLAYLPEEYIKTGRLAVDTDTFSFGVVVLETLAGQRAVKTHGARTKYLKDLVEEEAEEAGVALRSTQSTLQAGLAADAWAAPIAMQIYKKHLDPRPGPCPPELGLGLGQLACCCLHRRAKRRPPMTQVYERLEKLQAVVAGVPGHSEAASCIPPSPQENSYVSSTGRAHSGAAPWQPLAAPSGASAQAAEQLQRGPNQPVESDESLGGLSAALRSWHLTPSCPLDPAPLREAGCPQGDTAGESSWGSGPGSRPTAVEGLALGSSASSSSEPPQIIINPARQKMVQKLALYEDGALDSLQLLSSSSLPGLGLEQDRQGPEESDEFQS
From the text: as §1, §2, §3

FLT3 D835Y = target: T3, FLT3 D835Y (Homo sapiens, UniProt P36888, D835Y); experiment: DiscoverX KINOMEscan competition binding assay, FLT3 D835Y
T3 construct: purchased DiscoverX (KINOMEscan); host or cells: E. coli BL21-derived host (T7 phage) or HEK-293
T3 sequence (P36888 27-993 D835Y): T1 sequence (P36888 27-993) with D809Y
From the text: as §1, §2, §3

SMILES | Kd (FLT3) | Kd (IRAK1) | Kd (FLT3 D835Y)
COc1cc2ncc(-c3nc(N[C@H]4CNCC[C@@H]4F)ncc3F)n2nc1C1CC1 [Compound 1a, 4-(6-cyclopropyl-7-methoxyimidazo[1,2-b]pyridazin-3-yl)-5-fluoro-N-((3S,4S)-4-fluoropiperidin-3-yl)pyrimidin-2-amine] | < 170 pM | < 170 pM | 230 pM
FC(F)COc1cc2ncc(-c3ccnc(N[C@H]4CNCC[C@@H]4F)n3)n2nc1C1CC1 [Compound 4a, 4-(6-cyclopropyl-7-(2,2-difluoroethoxy)imidazo[1,2-b]pyridazin-3-yl)-N-((3 S,4S)-4-fluoropiperidin-3-yl)pyrimidin-2-amine] | < 170 pM | 7800 pM | 420 pM
COc1cc2ncc(-c3nc(N[C@H]4CNCC[C@@H]4F)ncc3F)n2nc1C(C)(C)O [Compound 45a, 2-(3-(5-fluoro-2-(((3S,4S)-4-fluoropiperidin-3-yl)amino)pyrimidin-4-yl)-7-methoxyimidazo[1,2-b]pyridazin-6-yl)propan-2-ol] | 1100 pM | 1600 pM | 200 pM
CC(C)(O)c1ccc2ncc(-c3nc(N[C@H]4CNCC[C@@H]4F)ncc3F)n2c1 [Compound 46a, 2-(3-(5-fluoro-2-(((3S,4S)-4-fluoropiperidin-3-yl)amino)pyrimidin-4-yl)imidazo[1,2-a]pyridin-6-yl)propan-2-ol] | 1200 pM | 700 pM | 260 pM
COc1cc2ncc(-c3nc(N[C@H]4CNCC[C@@H]4F)ncc3F)n2nc1C1COC1 [Compound 92a, 5-fluoro-N-((3S,4S)-4-fluoropiperidin-3-yl)-4-(7-methoxy-6-(oxetan-3-yl)imidazo[1,2-b]pyridazin-3-yl)pyrimidin-2-amine] | < 170 pM | 490 pM | < 170 pM
CC(C)(O)c1cn2c(-c3nc(N[C@H]4CNCC[C@@H]4F)ncc3F)cnc2cn1 [Compound 100a, 2-(3-(5-fluoro-2-(((3S,4S)-4-fluoropiperidin-3-yl)amino)pyrimidin-4-yl)imidazo[1,2-a]pyrazin-6-yl)propan-2-ol] | 16000 pM | 4500 pM | 2400 pM
COc1cc2ncc(-c3nc(N[C@H]4CNCC[C@@H]4F)ncc3F)n2nc1N1CCCS1(=O)=O [Compound 112a, 2-(3-(5-fluoro-2-(((3S,4S)-4-fluoropiperidin-3-yl)amino)pyrimidin-4-yl)-7-methoxyimidazo[1,2-b]pyridazin-6-yl)isothiazolidine 1,1-dioxide] | < 170 pM | 1100 pM | < 170 pM

From patent publication US20260226048A1, “MULTI-CYCLIC IRAK AND FLT3 INHIBITING COMPOUNDS AND USES THEREOF” (CHILDREN'S HOSPITAL MEDICAL CENTER, priority 2023, published 2026)
